The results in this text go back to PubChem BioAssay (NCI).

Some test systems named below: CAKI-1 renal; HCC-2998 colon; HOP-62 NSCLC; HOP-92 NSCLC; HT29 colon; NCI/ADR-RES ovarian; OVCAR-8 ovarian; SK-MEL-2 melanoma; SK-OV-3 ovarian; SNB-75 CNS.
What all share (test): DTP human tumour cell line panel, 48 h

Structures are written as SMILES.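 1) Cells in 96-well plates. 2) Compound, 48 h, 5 concentrations. 3) Linear interpolation between surrounding doses. 4) Unreached endpoint = highest concentration. GI50 is the concentration that inhibits growth by half. TGI: concentration producing complete growth inhibition.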 Where only a bound is given, the exact number is not on record here.

As to `C=C1C(=O)O[C@H]2[C@H]1CC/C(COC(=O)/C=C\C(=O)NCc1ccc(Cn3c(=O)sn(-c4ccc(C#N)cc4)c3=O)cc1)=C\CC[C@@]1(C)O[C@@H]21`, the GI50 (in general, the concentration giving 50% growth inhibition) with CAKI-1 renal is 0.354 µM; in the test on HCC-2998 colon it was 0.901 µM; in the test with HOP-62 NSCLC it was 2.52 µM; in the test with HOP-92 NSCLC, 0.622 µM; in the test with HT29 colon it was 0.474 µM; in the test with NCI/ADR-RES ovarian, 1.39 µM. Also, the GI50 is 0.802 µM in the test with OVCAR-8 ovarian, 0.935 µM with SK-MEL-2 melanoma, 4.02 µM with SK-OV-3 ovarian and 0.581 µM in the test with SNB-75 CNS. Further, the TGI (in general, the concentration giving total growth inhibition) with CAKI-1 renal was found to be 1.08 µM; in the test on HCC-2998 colon, 1.76 µM; in the test on HOP-62 NSCLC, 9 µM; in the test with HOP-92 NSCLC, 1.45 µM; in the test with HT29 colon, 1.9 µM; in the test on NCI/ADR-RES ovarian, 5.97 µM. The TGI came to 2.7 µM with OVCAR-8 ovarian, 2.03 µM in the test on SK-MEL-2 melanoma, 10.5 µM in the test on SK-OV-3 ovarian and 1.33 µM in the test on SNB-75 CNS.

For the molecule `COc1ccc(-c2nc(-c3nc4ccc(C)cc4[nH]3)c3ccccn23)cc1`, the GI50 in the test on CAKI-1 renal is 2.83 µM; in the test with HCC-2998 colon it was 2.93 µM; in the test with HOP-62 NSCLC it was 3.72 µM; in the test with HOP-92 NSCLC, 0.416 µM; with HT29 colon it was 3.36 µM; with NCI/ADR-RES ovarian, 2.71 µM. Besides, the GI50 in the test on OVCAR-8 ovarian was 2.05 µM; with SK-MEL-2 melanoma, 2.51 µM; in the test with SK-OV-3 ovarian, 6.95 µM; in the test on SNB-75 CNS, 5.49 µM. The concentration for total growth inhibition (TGI) is above 100 µM with CAKI-1 renal; 7.01 µM with HCC-2998 colon; above 100 µM in the test with HOP-62 NSCLC; 4.36 µM with HOP-92 NSCLC; above 100 µM in the test with HT29 colon; 8.06 µM in the test with NCI/ADR-RES ovarian. In addition, the TGI is 6.15 µM in the test with OVCAR-8 ovarian, 5.71 µM in the test on SK-MEL-2 melanoma, above 100 µM in the test with SK-OV-3 ovarian and above 100 µM in the test on SNB-75 CNS.

Consider `CC(C)(C)C1=CC(=CC=C2C=CN(CCCCCCCCCCCO)C=C2)C=C(C(C)(C)C)C1=O`, for which the TGI was 6.7 µM in the test on CAKI-1 renal; 2.27 µM with HCC-2998 colon; 3.63 µM with HOP-62 NSCLC; 6.16 µM with HOP-92 NSCLC; above 25.7 µM with HT29 colon; 11.7 µM in the test with NCI/ADR-RES ovarian. Also, the TGI in the test on OVCAR-8 ovarian stood at 2.1 µM; in the test with SK-MEL-2 melanoma it was 3.5 µM; with SK-OV-3 ovarian it was 5.81 µM; with SNB-75 CNS it was 5.4 µM.

Consider `Cc1[nH]c(N=Nc2ccccc2)nc1N=Nc1ccccc1`, for which the GI50 was 1.04 µM in the test on CAKI-1 renal; 4.2 µM with HCC-2998 colon; 4.09 µM in the test on HOP-62 NSCLC; 2.34 µM in the test with HOP-92 NSCLC; 4.57 µM in the test on HT29 colon; 2.78 µM with NCI/ADR-RES ovarian. Further, the GI50 in the test with OVCAR-8 ovarian is 3.2 µM; in the test with SK-MEL-2 melanoma it was 3.59 µM; with SK-OV-3 ovarian it was 3.14 µM; with SNB-75 CNS it was 1.66 µM. Further, the TGI with CAKI-1 renal stood at 3.48 µM; in the test on HCC-2998 colon, 29.6 µM; with HOP-62 NSCLC, 17.1 µM; with HOP-92 NSCLC, 20.3 µM; in the test with HT29 colon, 20.8 µM; in the test with NCI/ADR-RES ovarian, 27.3 µM. Further, the TGI is 53.1 µM with OVCAR-8 ovarian, 19.1 µM in the test with SK-MEL-2 melanoma, above 32.4 µM in the test on SK-OV-3 ovarian and 12.5 µM in the test with SNB-75 CNS.

Consider `Cn1cc(-c2csc(-c3cccc(F)c3)n2)c2cccnc21`, for which the GI50 with CAKI-1 renal was 16.2 µM; with HCC-2998 colon it was 18.9 µM; in the test with HOP-62 NSCLC, 18.9 µM; in the test with HOP-92 NSCLC it was 1.04 µM; in the test on HT29 colon, 14.2 µM; in the test with NCI/ADR-RES ovarian, 20.3 µM. In addition, the GI50 was 26.5 µM with OVCAR-8 ovarian, 23.5 µM in the test with SK-MEL-2 melanoma, 24.9 µM in the test on SK-OV-3 ovarian and 35.7 µM in the test on SNB-75 CNS. The TGI with CAKI-1 renal was determined as 40.5 µM; in the test on HCC-2998 colon it was 33.6 µM; in the test on HOP-62 NSCLC, 34.5 µM; with HOP-92 NSCLC it was 18.6 µM; in the test with HT29 colon, 27.9 µM; with NCI/ADR-RES ovarian it was 50.2 µM. Moreover, the TGI in the test with OVCAR-8 ovarian is 64.3 µM; with SK-MEL-2 melanoma it was 55.2 µM; in the test on SK-OV-3 ovarian, 62.2 µM; in the test with SNB-75 CNS it was above 100 µM.

For `CC12CCCC(CC(=O)c3[nH]c4ccccc4c31)C2` (centres undefined), the GI50 in the test on CAKI-1 renal is 0.535 µM; with HCC-2998 colon, 1.79 µM; with HOP-62 NSCLC, 0.813 µM; in the test on HOP-92 NSCLC, 2.56 µM; in the test with HT29 colon, 0.377 µM; in the test on NCI/ADR-RES ovarian it was 0.439 µM. Moreover, the GI50 in the test with OVCAR-8 ovarian is 2.01 µM; in the test with SK-MEL-2 melanoma it was 1.91 µM; in the test with SK-OV-3 ovarian it was 3.53 µM; in the test with SNB-75 CNS, 0.204 µM. Further, the TGI with CAKI-1 renal is above 78.8 µM; with HCC-2998 colon, 24.6 µM; with HOP-62 NSCLC, 50 µM; in the test on HOP-92 NSCLC it was 36.7 µM; in the test on HT29 colon it was 6.27 µM; in the test with NCI/ADR-RES ovarian, 6.96 µM. The TGI with OVCAR-8 ovarian is 30.7 µM; in the test with SK-MEL-2 melanoma, above 59.1 µM; in the test on SK-OV-3 ovarian, above 76.1 µM; with SNB-75 CNS, 21.7 µM.

As for `COc1ccc(C2CC(=O)c3c(OC)cc(OC)cc3O2)cc1` (centres undefined), the GI50 in the test on CAKI-1 renal is above 100 µM; with HCC-2998 colon, above 100 µM; with HOP-62 NSCLC it was above 100 µM; in the test on HOP-92 NSCLC, 18.4 µM; in the test on HT29 colon it was above 100 µM; in the test on NCI/ADR-RES ovarian, above 100 µM. For the same molecule, the GI50 in the test with OVCAR-8 ovarian, with SK-MEL-2 melanoma, with SK-OV-3 ovarian and in the test on SNB-75 CNS was above 100 µM each time. Also, the TGI in the test with CAKI-1 renal, in the test with HCC-2998 colon, in the test with HOP-62 NSCLC, in the test on HOP-92 NSCLC, with HT29 colon and in the test on NCI/ADR-RES ovarian was above 100 µM throughout. In addition, the TGI with OVCAR-8 ovarian, with SK-MEL-2 melanoma, in the test on SK-OV-3 ovarian and with SNB-75 CNS was above 100 µM each time.

With `C[C@]12CC[C@@H]3c4ccc(O)cc4C[C@@H](CCCCCCCCCS(=O)CCCC(F)(F)C(F)(F)F)[C@H]3[C@@H]1CC[C@@H]2O` (some centres undefined), the GI50 is above 100 µM with CAKI-1 renal; above 100 µM with HCC-2998 colon; above 67.4 µM with HOP-62 NSCLC; above 100 µM in the test on HOP-92 NSCLC; above 100 µM in the test on HT29 colon; above 100 µM with NCI/ADR-RES ovarian. For the same molecule, the GI50 with OVCAR-8 ovarian, in the test with SK-MEL-2 melanoma, in the test with SK-OV-3 ovarian and with SNB-75 CNS was above 100 µM each time. The TGI with CAKI-1 renal, with HCC-2998 colon, in the test with HOP-62 NSCLC, with HOP-92 NSCLC, in the test on HT29 colon and in the test on NCI/ADR-RES ovarian was above 100 µM throughout. In addition, the TGI in the test on OVCAR-8 ovarian, in the test on SK-MEL-2 melanoma, in the test with SK-OV-3 ovarian and with SNB-75 CNS was above 100 µM throughout.

For `NCCCCn1c2c(c3ccccc3c1=O)C(=O)c1ccccc1-2`, the GI50 was 0.0447 µM in the test with CAKI-1 renal; 0.484 µM in the test with HCC-2998 colon; 0.0528 µM in the test with HOP-62 NSCLC; 0.0363 µM in the test with HOP-92 NSCLC; 0.163 µM with HT29 colon; 0.709 µM in the test with NCI/ADR-RES ovarian. The GI50 in the test on OVCAR-8 ovarian is 0.0902 µM; with SK-MEL-2 melanoma it was 2.38 µM; in the test with SK-OV-3 ovarian it was 1.04 µM; in the test on SNB-75 CNS it was 0.372 µM. Moreover, the TGI with CAKI-1 renal worked out at 0.555 µM; in the test with HCC-2998 colon, 1.92 µM; in the test with HOP-62 NSCLC it was 0.272 µM; with HOP-92 NSCLC, 0.535 µM; with NCI/ADR-RES ovarian, 2.54 µM; in the test with OVCAR-8 ovarian it was 0.625 µM. For the same molecule, the TGI is above 42.4 µM with SK-MEL-2 melanoma, 9.81 µM with SK-OV-3 ovarian and 2.37 µM in the test with SNB-75 CNS.

On to `O=C(CCCSc1nc(-c2ccc(Cl)cc2)cc(-c2ccc(Cl)cc2)n1)NO`, for which the GI50 in the test with CAKI-1 renal was 0.334 µM; with HCC-2998 colon, 2.78 µM; with HOP-62 NSCLC, 0.618 µM; in the test with HOP-92 NSCLC it was 2.51 µM; with HT29 colon, 1.14 µM; in the test on NCI/ADR-RES ovarian, 0.31 µM. Also, the GI50 in the test on OVCAR-8 ovarian is 0.558 µM; in the test on SK-MEL-2 melanoma, 4.02 µM; with SK-OV-3 ovarian, 2.02 µM; with SNB-75 CNS it was 2.1 µM. Also, the TGI in the test with CAKI-1 renal is 10.7 µM; with HCC-2998 colon, 10.3 µM; in the test with HOP-62 NSCLC, 11.9 µM; in the test with HOP-92 NSCLC, 11.7 µM; in the test with HT29 colon it was 60 µM; with NCI/ADR-RES ovarian it was 1.9 µM. The TGI in the test with OVCAR-8 ovarian was 28.6 µM; in the test on SK-MEL-2 melanoma it was 20.4 µM; in the test with SK-OV-3 ovarian, 11.8 µM; in the test on SNB-75 CNS, 12 µM.

In the case of `COc1cc2c3c(n(CCCBr)c(=O)c2cc1OC)-c1ccc(NC(C)=O)cc1C3=O`, the GI50 is 1.09 µM with CAKI-1 renal; 11.9 µM with HCC-2998 colon; 1.29 µM in the test on HOP-62 NSCLC; 73.4 µM in the test on HOP-92 NSCLC; 2.99 µM in the test on HT29 colon; 39.4 µM with NCI/ADR-RES ovarian. Also, the GI50 in the test on OVCAR-8 ovarian was 18.7 µM; in the test on SK-MEL-2 melanoma it was 41.4 µM; with SK-OV-3 ovarian, 2.28 µM; with SNB-75 CNS, 12.1 µM. The concentration for total growth inhibition (TGI) in the test with CAKI-1 renal is 7.21 µM; in the test with HCC-2998 colon, 43.9 µM; in the test on HOP-62 NSCLC, 21.3 µM; in the test with HOP-92 NSCLC, above 100 µM; in the test with HT29 colon, above 100 µM; with NCI/ADR-RES ovarian it was above 100 µM. In addition, the TGI with OVCAR-8 ovarian is above 100 µM; in the test with SK-MEL-2 melanoma it was above 100 µM; in the test on SK-OV-3 ovarian, 10.6 µM; in the test on SNB-75 CNS, 54 µM.
